How the values were obtained:
T-cells in human PBMC = test: PBMC stimulation assay, anti-CD3/CD28-stimulated T-cell activation (CD69); assay type: cell-based; conditions: 16 h, up to the highest concentration of 10 μM
Method: After culturing, the stimulated cells were stained with fluorescently labeled CD3, CD20, and CD69 antibodies. B-cells (identified by gating CD20-positive and CD3-negative cells) and T-cells (identified by gating CD3-positive and CD20-negative cells) were analyzed by flow cytometry to monitor the expression of CD69. […] GraphPad Prism version 5.04 (GraphPad Software, Inc., San Diego, CA, USA) and its base settings were used for initial values and convergence conditions.

TMD8 cells = test: Western blot of BTK downstream signaling (p-PLCγ2, p-ERK1/2, p-AKT, p-IκBα); assay type: cell-based, human
Method: (§1) After culturing, cells were harvested and lysed with cell lysis buffer (Cell Signaling Technology, Inc.) containing 1 mM AEBSF (Calbiochem, #101500). As a positive control of BTK autophosphorylation for western blot analysis, TMD8 cells were treated with hydrogen peroxide (H2O2; final concentration: 6 mM) for 10 min, harvested as a control sample, and then lysed with the cell lysis buffer.
(§2) Each mixture of cells and cell lysis buffer was incubated on ice for 5 min, then centrifuged at 13400 × g and 4°C for 10 min. Total lysates were loaded on 4%–12% SDS-PAGE (Bio-Rad) and transferred to a polyvinylidene difluoride (PVDF) membrane (Immobilon-P Transfer Membrane, Millipore Corporation). The blot was incubated in Tris-buffered saline with Tween 20 (TBS-T, Cell Signaling Technology, Inc.) containing 2 w/v% ECL Advance Blocking Agent (GE Healthcare Life Sciences, b) for 1 h at room temperature. The blocked PVDF membranes were immersed in TBS-T and washed three times with shaking at room temperature for 10 min. The membrane was incubated with primary antibody in TBS-T containing 2 w/v% ECL Advance Blocking Agent with gentle agitation overnight at 5°C in a cold storage room or for 1 h at room temperature. Rabbit monoclonal anti- phosphorylated BTK (Tyr-223) antibody (p-BTK; Novus Biologicals, #NB100-79907), rabbit monoclonal BTK antibody (Cell Signaling Technology, Inc., #3533), rabbit polyclonal phosphorylated AKT (Ser-473) antibody (p-AKT; Cell Signaling Technology, Inc., #9271), rabbit monoclonal AKT (pan) (C67E7) antibody (Cell Signaling Technology, Inc., #4691), rabbit polyclonal phosphorylated p44/42 MAPK (ERK1/2) (Thr-202/Tyr-204) antibody (p-ERK1/2; Cell Signaling Technology, Inc., #9101), rabbit monoclonal p44/42 MAPK (ERK1/2) (137F5) antibody (Cell Signaling Technology, Inc., #4695), rabbit monoclonal phosphorylated PLCγ2 (Tyr-759) (E9E9Y) antibody (p-PLCγ2; Cell Signaling Technology, Inc., #50535), rabbit monoclonal PLCγ2 (E5U4T) antibody (Cell Signaling Technology, Inc., #55512), mouse monoclonal phosphorylated IκBα (Ser-32/36) (5A5) antibody (p-IκBα; Cell Signaling Technology, Inc., #9246), rabbit monoclonal IκBα (44D4) antibody (Cell Signaling Technology, Inc., #4812), rabbit polyclonal phosphorylated PKCβ (phospho-Thr-641) antibody (p-PKCβ; Signalway Antibody LLC, #11172), rabbit monoclonal IRF4 (D9P5H) antibody (Cell Signaling Technology, Inc., #15106), rabbit monoclonal BCL6 (D65C10) antibody (Cell Signaling Technology, Inc., #5650), rabbit monoclonal c-MYC (D84C12) antibody (Cell Signaling Technology, Inc., #5605), and rabbit monoclonal GAPDH (14C10) antibody (Cell Signaling Technology, Inc., #2118) were used. The PVDF membranes were immersed in TBS-T and washed three times with shaking at room temperature for 10 min, then incubated with secondary antibody with shaking for 1 h at room temperature. The secondary antibody used was anti-rabbit-IgG horseradish peroxidase (HRP)-linked antibody (Cell Signaling Technology, #7074) or goat anti-rabbit immunoglobulins/HRP (Dako, P0448). The PVDF membranes were washed three times with shaking at room temperature for 10 min and were treated with ECL^TM Advance Western Blotting Detection Kit (GE Healthcare Life Sciences, #RPN2135) for chemiluminescent detection according to the manufacturer’s instruction. Lumino-image analyzer (LAS-1000 Plus system, Fuji Photo Film Co., Ltd.) and Image Reader LAS-1000 Lite version 1.3 (Fuji Photo Film Co., Ltd.) were used to visualize bands. The densitometry analysis described the ratio of phosphorylated to total BTK protein. […] 5.04 (GraphPad Software, Inc.).

U-2932 cells = test: as above; assay type: cell-based, human
Method: as §1, §2

[1] = tested on: TMD8 subcutaneous xenograft; test: TMD8 subcutaneous xenograft model, tumor volume; assay type: in vivo, mouse; conditions: SCID mice; 1, 3, 10 mg/kg BID orally, 21 days
Method: The present study was conducted in compliance with the Guidance for Animal Experiments, the Ethical Standards for Experiments using Human Tissues, and the Standards for Safety Management of Pathogens established by Ono Pharmaceutical Co., Ltd. Female C.B-17/Icr-scid/scidJcl mice (hereafter referred to as severe combined immunodeficient [SCID] mice) were obtained from CLEA Japan, Inc. (Tokyo, Japan). The age at the beginning of the experiment was 6 weeks. To establish the TMD8 xenograft model, TMD8 cell suspension (0.1 mL, 1 × 10^8 cells/mL) was subcutaneously injected into the right flank of SCID mice under pentobarbital anesthesia. […] Tumor diameters and body weight were measured every 3 or 4 days after group assignment. The tumor growth inhibition rate (%) in the tirabrutinib-treated groups, versus the vehicle group, was calculated based on tumor volume. Statistical tests were performed with the SAS 9.2 (SAS Institute Japan Ltd., Tokyo, Japan) TS2M3-based EXSUS system version 7.7.1 (CAC Corporation, Tokyo, Japan). The Dunnett test was used to compare tumor volume in the tirabrutinib- and vehicle-treated groups, and linear regression analysis was used to study dose response in the tirabrutinib groups. The statistical tests were two-sided with a 5% significance level.

TMD8 xenograft tumor = test: Gene set enrichment analysis (GSEA) of TMD8 xenograft microarray data; assay type: in vivo, mouse
RIPK2 = RIPK2 (Homo sapiens, UniProt O43353); test: KinAffinity cell-based binding assay using PBMC; design: in a cell-based assay using PBMC (Kd); host or cells: PBMC
[2] = GSEA report for tirabrutinib 10, 10 mg/kg vs vehicle
[3] = GSEA report for vehicle, tirabrutinib 10 mg/kg vs vehicle

Chain of RIPK2 (O43353 whole entry): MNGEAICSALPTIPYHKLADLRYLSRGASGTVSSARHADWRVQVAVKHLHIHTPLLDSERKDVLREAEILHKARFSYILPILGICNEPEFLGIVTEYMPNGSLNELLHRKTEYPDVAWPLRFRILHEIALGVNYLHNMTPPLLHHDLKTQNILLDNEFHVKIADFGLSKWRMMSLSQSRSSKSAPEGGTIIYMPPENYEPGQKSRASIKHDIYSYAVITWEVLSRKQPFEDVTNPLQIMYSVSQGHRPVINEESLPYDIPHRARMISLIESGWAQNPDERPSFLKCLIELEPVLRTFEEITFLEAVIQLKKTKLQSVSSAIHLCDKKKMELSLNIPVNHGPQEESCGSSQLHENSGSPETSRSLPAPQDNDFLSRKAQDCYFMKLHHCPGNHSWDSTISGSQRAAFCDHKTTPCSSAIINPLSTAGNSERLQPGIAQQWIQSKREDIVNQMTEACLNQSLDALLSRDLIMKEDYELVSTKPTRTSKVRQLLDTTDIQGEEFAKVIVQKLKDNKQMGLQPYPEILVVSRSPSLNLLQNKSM

Q: For `CC#CC(=O)N1CC[C@@H](n2c(=O)n(-c3ccc(Oc4ccccc4)cc3)c3c(N)ncnc32)C1` [Tirabrutinib], which “inhibition of anti-CD3/CD28-stimulated T-cell activation (CD69)” value (T-cells in human PBMC) is on record?
A: The value was “did not inhibit”.

Q: What about the “p-AKT at Ser-473” value (TMD8 cells; 1 μM) of the same compound?
A: The value was “inhibition”.

Q: And the “p-IκBα at S32/36” value (TMD8 cells; 1 μM, 4 h)?
A: Its value is “inhibited”.

Q: What about the p-ERK (TMD8 cells; 1 h, 10-300 nM) of the same compound?
A: The p-ERK was “inhibited”.

Q: And the “phosphorylation of PLCγ2 at Tyr-759” value (TMD8 cells; 1 h, 10-300 nM)?
A: The value was “inhibited”.

Q: What about the “AKT signaling (p-AKT Ser-473)” value (U-2932 cells; 1 μM) of the same compound?
A: Its value is “did not indicate inhibition”.

Q: What about the “p-IκBα at S32/36” value (U-2932 cells; 1 μM, 4 h) of the same compound?
A: Its value is “inhibited”.

Q: And the p-ERK (U-2932 cells; 1 h, 10-300 nM)?
A: Its p-ERK is “not clear”.

Q: And the “phosphorylation of PLCγ2 at Tyr-759” value (U-2932 cells; 1 h, 10-300 nM)?
A: Its value is “inhibited”.

Q: What about the p-ERK (U-2932 cells; 4 h, 10-300 nM) of the same compound?
A: Its p-ERK is “significant inhibition”.

Q: And the “anti-tumor effect (tumor volume)” value [1]?
A: The value was “dose-dependent anti-tumor effect”.

Q: What about the “IRF4, MYC, and mTORC1 pathway-related genes (GSEA)” value (TMD8 xenograft tumor; 10 mg/kg vs vehicle) of the same compound?
A: Its value is “downregulated”.

Q: What about the “NES DESCARTES_FETAL_LUNG_LYMPHOID_CELLS” value (TMD8 xenograft tumor; [2]) of the same compound?
A: Its value is 2.406.

Q: And the “NES DESCARTES_FETAL_STOMACH_LYMPHOID_CELLS” value (TMD8 xenograft tumor; [2])?
A: Its value is 2.57.

Q: And the “NES GOBP_CYTOKINE_PRODUCTION_INVOLVED_IN_INFLAMMATORY_RESPONSE” value (TMD8 xenograft tumor; [2])?
A: Its value is 2.462.

Q: And the “NES MORI_PLASMA_CELL_DN” value (TMD8 xenograft tumor; [2])?
A: The value was 2.456.

Q: What about the “NES REACTOME_GENERATION_OF_SECOND_MESSENGER_MOLECULES” value (TMD8 xenograft tumor; [2]) of the same compound?
A: The value was 2.407.

Q: What about the “NES ELVIDGE_HIF1A_TARGETS_DN” value (TMD8 xenograft tumor; [3]) of the same compound?
A: Its value is -2.295.

Q: And the “NES GSE29614_CTRL_VS_DAY7_TIV_FLU_VACCINE_PBMC_DN” value (TMD8 xenograft tumor; [3])?
A: The value was -2.25.

Q: And the “NES MENSE_HYPOXIA_UP” value (TMD8 xenograft tumor; [3])?
A: The value was -2.505.

Q: What about the “NES QI_HYPOXIA” value (TMD8 xenograft tumor; [3]) of the same compound?
A: The value was -2.398.

Q: What about the “NES TSANG_PBMC_FLUVIRIN_PANDEMRIX_ADULT_CORR_WITH_CELL_FREQ_CD27HI_CD38HI_CD20_NEG_PLASMABLASTS_AND_CD38PLUS_OF_IGD_CD27PLUS_MEM_B_CELLS_7DY_POSITIVE” value (TMD8 xenograft tumor; [3]) of the same compound?
A: The value was -2.3945.

Q: And the Kd (RIPK2)?
A: Its Kd is greater than 3 µM.
